Assay results: patent US7238697B2, “Pyridylpyrimidines for use as pesticides” (Bayer CropScience AG, priority 2001, dated 2007)

These compounds were tested on thrips (Franklinella occidentalis) (assay: Franklinella test (cucumber plants sprayed)). Details: 1000 ppm.
Format: in vivo
Protocol: To product a suitable preparation of active compound, 1 part by weight of active compound is mixed with the stated amounts of solvent and emulsifier, and the concentrate is diluted to the desired concentration.
Cucumber plants (Cucumis sativus) which are heavily infested by all stages of thrips (Franklinella occidentalis) are sprayed with a preparation of active compound of the desired concentration.
After the desired period of time, the effect in % is determined. 100% means that all thrips have been killed; 0% means that none of the thrips have been killed.

| Structure (SMILES) | Kill rate in % after 7 d [%] |
| --- | --- |
| COC(=O)CSc1nccc(-c2ccccn2)n1 [drawing 401] | 99 |

Each compound was assayed on peach aphids (Myzus persicae) (assay: Myzus test (cabbage leaves dipped)). Details: 144 h, 100 ppm, after 6 d, solvent 30 parts DMF, emulsifier 1 part (Table D-1), read-out: Kill rate in % after 6 d.
Format: in vivo
Protocol: To produce a suitable preparation of active compound, 1 part by weight of active compound is mixed with the stated amounts of solvent and emulsifier, and the concentrate is diluted with emulsifier-containing water to the desired concentration. Cabbage leaves (Brassica oleracea) which are heavily infested by peach aphids (Myzus persicae) are treated by being dipped into the preparation of the active compound of the desired concentration. After the desired period of time, the kill in % is determined. 100% means that all aphids have been killed; 0% means that none of the aphids has been killed.

| Structure (SMILES) | pest or weed control at 100 ppm [%] |
| --- | --- |
| COC(=O)CSc1nccc(-c2ccccn2)n1 [drawing 415] | 100 |
| COC(=O)C(Sc1nccc(-c2ccccn2)n1)C(=O)OC [drawing 421] | 95 |

Same assay, conditions: 144 h, 200 ppm, after 6 d, solvent 30 parts DMF, emulsifier 1 part (Table D-1), read-out: Kill rate in % after 6 d

| Structure (SMILES) | pest or weed control at 200 ppm [%] |
| --- | --- |
| COC(=O)CC(=O)CSc1nccc(-c2ccccn2)n1 [drawing 427] | 95 |

Same assay, conditions: 144 h, 500 ppm, after 6 d, solvent 7 parts DMF, emulsifier 2 parts (Table D-2), read-out: Kill rate in % after 6 d

| Structure (SMILES) | pest or weed control at 500 ppm [%] |
| --- | --- |
| CCC1(COC(=O)CSc2nccc(-c3ccccn3)n2)CCO1 (stereo not drawn) [drawing 428] | 98 |
| CCOC(=O)C1CC1COC(=O)CSc1nccc(-c2ccccn2)n1 (stereo not drawn) [drawing 429] | 98 |
| COCN(C)C(=O)COC(=O)CSc1nccc(-c2ccccn2)n1 [drawing 430] | 98 |
| O=C(CSc1nccc(-c2ccccn2)n1)OCC(F)=C(Cl)Cl [drawing 431] | 100 |
| O=C(CSc1nccc(-c2ccccn2)n1)OC1CS(=O)(=O)C1 [drawing 432] | 100 |
| CC(=O)NCC(C)OC(=O)CSc1nccc(-c2ccccn2)n1 (stereo not drawn) [drawing 433] | 95 |
| CC(C)OC(=O)C(C)OC(=O)CSc1nccc(-c2ccccn2)n1 (stereo not drawn) [drawing 434] | 95 |
| O=C(CSc1nccc(-c2ccccn2)n1)OC1CC(F)(F)C1(F)F (stereo not drawn) [drawing 435] | 100 |
| O=C(CSc1nccc(-c2ccccn2)n1)OC1COC1 [drawing 436] | 95 |
| NC(=O)CCSc1nccc(-c2ccccn2)n1 [drawing 437] | 80 |
| CC(C)(C)SC(=O)CSc1nccc(-c2ccccn2)n1 [drawing 438] | 95 |
| CCOC(=O)CSc1nccc(-c2cc(OC)ccn2)n1 [drawing 439] | 90 |
| CCOC(=O)CSc1nccc(-c2ccc(C)cn2)n1 [drawing 440] | 98 |

Same assay, conditions: 144 h, 1000 ppm, after 6 d, solvent 30 parts DMF, emulsifier 1 part (Table D-1), read-out: Kill rate in % after 6 d

| Structure (SMILES) | pest or weed control at 1000 ppm [%] |
| --- | --- |
| CCOC(=O)CSc1nccc(-c2ccccn2)n1 [drawing 416] | 100 |
| CCCOC(=O)CSc1nccc(-c2ccccn2)n1 [drawing 417] | 95 |
| CC(C)OC(=O)CSc1nccc(-c2ccccn2)n1 [drawing 418] | 100 |
| C=CCOC(=O)CSc1nccc(-c2ccccn2)n1 [drawing 419] | 95 |
| O=C(CSc1nccc(-c2ccccn2)n1)OC1CCCCC1 [drawing 420] | 100 |
| NC(=O)CSc1nccc(-c2ccccn2)n1 [drawing 422] | 95 |
| COC(=O)CCCSc1nccc(-c2ccccn2)n1 [drawing 423] | 100 |
| O=C(O)CSc1nccc(-c2ccccn2)n1 [drawing 424] | 100 |

Each compound was assayed on Meloidogyne incognita (assay: Meloidogyne test (gall formation on lettuce roots)). Details: 336 h, after 14 d, solvent 7 parts DMF, emulsifier 2 parts (Table C-2), read-out: Kill rate in % after 14 d.
Format: in vivo
Protocol: To produce a suitable preparation of active compound, 1 part by weight of active compound is mixed with the stated amounts of solvent and emulsifier, and the concentrate is diluted with water to the desired concentration. Vessels are filled with sand, solution of active compound, Meloidogyne incognita egg/larvae suspension and lettuce seeds. The lettuce seeds germinate and the plants develop. On the roots, galls are formed. After the desired period of time, the nematicidal action is determined in % by the gall formation. 100% means that no galls were found; 0% means that the number of galls on the treated plants corresponds to that of the untreated control.

| Structure (SMILES) | pest or weed control at 20 ppm [%] |
| --- | --- |
| CCOC(=O)C(C)OC(=O)CSc1nccc(-c2ccccn2)n1 (stereo not drawn) [drawing 409] | 80 |
| COC(=O)CSc1nc(-c2ccccc2)cc(-c2ccccn2)n1 [drawing 410] | 100 |
| CCOC(=O)CSc1nccc(-c2ccc(CC)cn2)n1 [drawing 411] | 90 |
| CCOC(=O)CSc1nccc(-c2ccc(C)cn2)n1 [drawing 412] | 90 |
| CCOC(=O)CSc1nccc(-c2ccc(C(F)(F)F)cn2)n1 [drawing 413] | 100 |
| CC(C)(C)n1nnc(CSc2nccc(-c3ccccn3)n2)n1 [drawing 414] | 90 |

Same assay, conditions: 336 h, after 14 d, solvent 30 parts DMF, emulsifier 1 part (Table C-1), read-out: Kill rate in % after 14 d

| Structure (SMILES) | pest or weed control at 20 ppm [%] |
| --- | --- |
| CCOC(=O)CSc1nccc(-c2ccccn2)n1 [drawing 402] | 90 |
| COCCOC(=O)CSc1nccc(-c2ccccn2)n1 [drawing 403] | 90 |
| CC(C)=NNC(=O)CSc1nccc(-c2ccccn2)n1 [drawing 404] | 98 |
| COC(=O)CCCSc1nccc(-c2ccccn2)n1 [drawing 405] | 90 |
| COC(=O)CSc1nc(-c2ccccn2)c2cc(Cl)ccc2n1 [drawing 406] | 98 |
| COC(=O)CSc1nc(-c2ccccn2)cc(-c2ccccn2)n1 [drawing 407] | 95 |
| CCOC(=O)/C=C/CSc1nccc(-c2ccccn2)n1 [drawing 408] | 100 |

These compounds were tested on larvae of the mustard beetle (Phaedon cochleariae) (assay: Phaedon larvae test (cabbage leaves dipped)). Details: 500 ppm, solvent 7 parts DMF, emulsifier 2 parts (Table E-2).
Format: in vivo
Protocol: To produce a suitable preparation of active compound, 1 part by weight of active compound is mixed with the stated amounts of solvent and emulsifier, and the concentrate is diluted with emulsifier-containing water to the desired concentration. Cabbage leaves (Brassica oleracea) are treated by being dipped into the preparation of active compound of the desired concentration and are populated with larvae of the mustard beetle (Phaedon cochleariae) while the leaves are still moist. After the desired period of time, the kill in % is determined. 100% means that all beetle larvae have been killed; 0% means that none of the beetle larvae have been killed.

| Structure (SMILES) | Kill rate in % after 7 d [%] |
| --- | --- |
| CCOC(=O)CSc1nccc(-c2ccc(C(F)(F)F)cn2)n1 [drawing 442] | 100 |
| CCOC(=O)CSc1nccc(-c2ccc(Cl)cn2)n1 [drawing 443] | 100 |
| CC(C)(C)n1nnc(CSc2nccc(-c3ccccn3)n2)n1 [drawing 444] | 100 |

Same assay, conditions: 1000 ppm, solvent 30 parts DMF, emulsifier 1 part (Table E-1)

| Structure (SMILES) | Kill rate in % after 7 d [%] |
| --- | --- |
| O=C(CSc1nccc(-c2ccccn2)n1)N/N=C/c1ccc([N+](=O)[O-])cc1 [drawing 441] | 100 |

What follows are compounds tested on cotton aphid (Aphis gossypii) (assay: Aphis gossypii test (cotton leaves dipped)). Details: 200 ppm.
Format: in vivo
Protocol: To produce a suitable preparation of active compound, 1 part by weight of active compound is mixed with the stated amounts of solvent and emulsifier, and the concentrate is diluted with emulsifier-containing water to the desired concentration. Cotton leaves (Gossypium hirsutum) which are heavily infested by the cotton aphid (Aphis gossypii) are treated by being dipped into the preparation of active compound of the desired concentration. After the desired period of time, the kill in % is determined. 100% means that all aphids have been killed; 0% means that none of the aphids have been killed.

| Structure (SMILES) | Kill rate in % after 6 d [%] |
| --- | --- |
| COC(=O)CSc1nccc(-c2ccccn2)n1 [drawing 398] | 85 |
| CCCOC(=O)CSc1nccc(-c2ccccn2)n1 [drawing 399] | 85 |
| O=C(CSc1nccc(-c2ccccn2)n1)OC1CCCCC1 [drawing 400] | 90 |

These compounds were tested on caterpillars of the army worm (Spodoptera frugiperda) (assay: Spodoptera frugiperda test (cabbage leaves dipped)). Details: 500 ppm, solvent 7 parts DMF, emulsifier 2 parts.
Format: in vivo
Protocol: To produce a suitable preparation of active compound, 1 part by weight of active compound is mixed with the stated amounts of solvent and emulsifier, and the concentrate is diluted with emulsifier-containing water to the desired concentration. Cabbage leaves (Brassica oleracea) are treated by being dipped into the preparation of active compound of the desired concentrated and are populated with caterpillars of the army worm (Spodoptera frugiperda) while the leaves are still moist. After the desired period of time, the kill in % is determined. 100% means that all caterpillars have been killed; 0% means that none of the caterpillars has been killed.

| Structure (SMILES) | Kill rate in % after 7 d [%] |
| --- | --- |
| CCOC(=O)CSc1nc(C)cc(-c2ccccn2)n1 [drawing 445] | 100 |
| CCOC(=O)CSc1nccc(-c2ccc(C(F)(F)F)cn2)n1 [drawing 446] | 100 |
| CC(C)(C)n1nnc(CSc2nccc(-c3ccccn3)n2)n1 [drawing 447] | 100 |
